According to patent publication US5135931A, “Pyridinylpiperazine derivatives” (Akzo N.V., priority 1990, dated 1992):
Structures can show the parent of a compound that is named as a salt.

Columns and labels:
[1] = target: T1, 5-HT1A (serotonin 1A) receptors (Homo sapiens, UniProt P08908); test: serotonin binding activity, 5-HT1A; conditions: average test results; read-out: pKi 5-HT1A (converted)
T1 sequence (P08908 1-422): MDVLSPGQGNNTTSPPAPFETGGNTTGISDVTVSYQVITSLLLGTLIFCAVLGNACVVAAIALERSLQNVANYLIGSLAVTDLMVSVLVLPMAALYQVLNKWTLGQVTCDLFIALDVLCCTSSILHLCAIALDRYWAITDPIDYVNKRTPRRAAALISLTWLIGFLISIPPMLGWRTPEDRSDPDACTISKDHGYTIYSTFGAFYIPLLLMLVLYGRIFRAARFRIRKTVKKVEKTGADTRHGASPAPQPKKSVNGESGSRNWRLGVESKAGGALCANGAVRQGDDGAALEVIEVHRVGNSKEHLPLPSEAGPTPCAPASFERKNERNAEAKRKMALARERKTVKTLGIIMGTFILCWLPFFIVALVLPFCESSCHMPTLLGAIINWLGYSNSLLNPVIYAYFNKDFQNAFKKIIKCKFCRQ
Procedure: (§1) The various compounds of Examples I-VIII were analyzed for serotonin binding activity.

[2] = target: 5-HT1B (serotonin 1B) receptor (Rattus norvegicus, UniProt P28564); test: serotonin binding activity, 5-HT1B; conditions: average test results; read-out: pKi 5-HT1B (converted)
Procedure: as §1

5-HT1B (serotonin 1B) receptor, sequence (P28564 whole entry): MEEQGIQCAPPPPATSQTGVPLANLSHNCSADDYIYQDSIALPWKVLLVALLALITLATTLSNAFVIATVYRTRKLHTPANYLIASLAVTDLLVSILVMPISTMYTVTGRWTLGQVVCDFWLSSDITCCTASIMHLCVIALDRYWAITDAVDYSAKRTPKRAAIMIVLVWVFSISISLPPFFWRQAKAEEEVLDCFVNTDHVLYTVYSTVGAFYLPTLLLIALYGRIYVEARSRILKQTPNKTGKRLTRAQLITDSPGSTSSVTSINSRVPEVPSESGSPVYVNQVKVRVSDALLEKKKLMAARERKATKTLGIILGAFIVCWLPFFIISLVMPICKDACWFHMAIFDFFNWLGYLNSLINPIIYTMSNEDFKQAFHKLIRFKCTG

Row | Ki [1] [nM] | Ki [2] [nM] | Compound
1 | 20 | 10000 | O=C(NCCN1CCN(c2cc(C(F)(F)F)ccn2)CC1)c1ccc(F)cc1 [III, 4-fluoro-N-[2-[4-[4-(trifluoromethyl) -2-pyridinyl]-1-piperazinyl]ethyl]benzamide (E)-2-butenedioate (1:1) salt]
2 | 1.58 | > 10000 | O=C(NCCN1CCN(c2cccc(C(F)(F)F)n2)CC1)c1ccc(F)cc1 [Example I, 4-fluoro-N-[2-[4-[6-(trifluoromethyl)-2-pyridinyl]-1-piperazinyl]ethyl]benzamide (E)-2-butenedioate (1:1) salt]
3 | 63.1 | > 10000 | CN(CCCN1CCN(c2cccc(C(F)(F)F)n2)CC1)C(=O)c1ccc(F)cc1 [VIII, 4-fluoro-N-[3-[4-(6-(trifluoromethyl)-2-pyridinyl)-1-piperazinyl]propyl]-N-methylbenzamide]
4 | 1 | 10000 | O=C(NCCN1CCN(c2cccc(C(F)(F)F)n2)CC1)c1ccccc1 [II, N-[2-[4-[6-(trifluoromethyl)-2-pyridinyl]-1-piperazinyl]ethyl]benzamide (E)-2-butenedioate (1:1) salt]
5 | 50.1 | 5010 | O=C(NCCN1CCN(c2cccc(C(F)(F)F)n2)CC1)c1cccnc1 [VI]
6 | 31.6 | > 10000 | CN(CCN1CCN(c2cccc(C(F)(F)F)n2)CC1)C(=O)c1ccc(F)cc1 [VII, 4-fluoro-N-[2-[4-(6-(trifluoromethyl)-2-pyridinyl)-1-piperazinyl]ethyl]-N-methylbenzamide]
7 | 7.94 | 501 | O=C(NCCCCN1CCN(c2cccc(C(F)(F)F)n2)CC1)c1ccc(F)cc1 [Example IV, 4-fluoro-N-[4-[4-[6-(trifluoromethyl) -2-pyridinyl]-1-piperazinyl]butyl]benzamide (E)-2-butenedioate (2:1) salt]
8 | 6.31 | 1000 | O=C(NCCCCN1CCN(c2cccc(C(F)(F)F)n2)CC1)c1ccccc1 [V, N-[4-[4-[6-(trifluoromethyl)-2-pyridinyl]-1-piperazinyl]butyl]benzamide (E)-2-butenedioate (2:1) salt]
